From PMC10761937, “Functional engineering of human iPSC‐derived parasympathetic neurons enhances responsiveness to gastrointestinal hormones” (FEBS Open Bio, 2023)

System: NPY2R
Test: cAMP accumulation assay, NPY2R‐HEK293T cells
Assay type: cell-based, human
Details: 0, 1, 10, 100 nM PYY, 0.5 mM IBMX, 10 μM FSK, 37 °C, 30 min, cAMP ELISA, n = 3
Experimental: HEK293T cells (Lenti‐X 293T Cell line; TaKaRa, Shiga, Japan) were maintained in Dulbecco's Modified Eagle Medium (DMEM; Fujifilm Wako Pure Chemical Industries, Osaka, Japan) supplemented with 10% fetal bovine serum (Biowest, Nuaillé, France), 1% non‐essential amino acids (NEAA) (Fujifilm Wako Pure Chemical Industries), and 1% penicillin–streptomycin (P/S) (Fujifilm Wako Pure Chemical Industries) and cultured in non‐coated culture plates at 37 °C and in an incubator with 5% CO2. The culture medium was replaced every 2–3 days. At 80–90% confluence, the cell colonies were digested into single cells using TrypLE Express (Thermo Fisher Scientific). The resulting cells were used for lentiviral transfection and agonist experiments.
Figure S1 presents the protocol used for this experiment. Lentiviral vectors were acquired from VectorBuilder (VectorBuilder Japan, Inc., Kanagawa, Japan). The mCherry expression vector (pLV‐Puro‐EF1A‐mCherry) was used as a control. pMD2.g plasmid (Addgene plasmid# 12259; RRID: Addgene 12259, Watertown, MA, USA) and psPAX2 plasmids (Addgene plasmid# 12260; RRID: Addgene 12260) were used as packaging plasmids. To produce lentiviruses, HEK293T cells were transduced with lentiviral vectors and packaging constructs containing 2 μg of lentivirus plasmids, 1 μg of pMD2.g, and 1 μg of psPAX2 plasmids using polyethyleneimine (PEI; Polysciences Inc., Warrington, PA, USA). […]

## PYY: PYY (4400‐v; Peptide Institute, Inc.); PYY (3–36) in Ca2+ imaging
  Intracellular cAMP levels (Gi function): decreased in a concentration‐dependent manner
